Laboratory results as given in the NIST ThermoML archive (doi:10.1016/j.fluid.2008.02.016).
± gives the expanded uncertainty stated by the source.

How the values were obtained:
[1] = Crystal; DTA
[2] = Molar enthalpy of transition or fusion; details: Crystal; DSC

Cc1ccc(C(c2ccc(C)cc2)(C(F)(F)F)C(F)(F)F)cc1 [2,2-bis(p-tolyl)hexafluoropropane]
Normal melting temperature [1]: 84.10 ± 0.5 °C | Molar enthalpy of transition or fusion [2]: 5.33 ± 0.167 kcal/mol

Cc1ccc(C(C)(C)c2ccc(C)cc2)cc1 [2,2-bis(p-tolyl)propane]
Normal melting temperature [1]: 78.60 ± 0.5 °C | Molar enthalpy of transition or fusion [2]: 5.07 ± 0.143 kcal/mol
